In one experiment the target is KRAS G12V (Homo sapiens, UniProt P01116+P62937, G12V). The experiment is described as follows: Disruption of BRAF RBD interaction with Ras (FRET / MOA assay, with Cyclophilin A). It counts as biochemical. The note with it: KRAS G12V; read-out: KRAS G12V FRET data IC50. An outline of the steps:
(§1)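 Compound-driven ternary complex formation between nucleotide-loaded K-Ras and Cyclophilin A was measured as loss of BRAF RBD binding. Compounds (10-point 3-fold series, top 30 μM final) were incubated 3 h at 25 °C, then anti-His Eu-W1024 (10 nM) and anti-GST allophycocyanin (50 nM) added for 1.5 h. IC50 was taken from the TR-FRET ratio decrease versus DMSO.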

In the next experiment the target is KRAS G13C (Homo sapiens, UniProt P01116+P62937, G13C). The experiment is described as above. It counts as biochemical. The note with it: read-out: KRAS G13C FRET data, IC50. An outline of the steps: as §1
Chain of KRAS G13C (P01116 1-169 isoform P01116-2 G13C): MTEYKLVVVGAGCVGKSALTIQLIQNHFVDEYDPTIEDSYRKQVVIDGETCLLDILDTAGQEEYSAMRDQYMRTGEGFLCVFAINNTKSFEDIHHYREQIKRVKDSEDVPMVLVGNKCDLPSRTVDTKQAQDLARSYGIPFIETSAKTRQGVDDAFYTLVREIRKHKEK
Chain of KRAS G13C (P62937 whole entry): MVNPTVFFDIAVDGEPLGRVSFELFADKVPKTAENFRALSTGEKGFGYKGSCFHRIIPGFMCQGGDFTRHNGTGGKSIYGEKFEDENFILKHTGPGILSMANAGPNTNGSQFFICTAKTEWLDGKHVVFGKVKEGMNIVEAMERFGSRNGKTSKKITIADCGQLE
Another experiment has as its target KRAS G12C (Homo sapiens, UniProt P01116+P62937, G12C). The description is as above. The note with it: read-out: KRAS G12C FRET data, IC50. It counts as biochemical. An outline of the steps: as §1
The target in another experiment is KRAS G13D (Homo sapiens, UniProt P01116+P62937, G13D). The description is as above. It counts as biochemical. The note with it: KRAS G13D; read-out: KRAS G13D FRET data IC50. In a few lines: as §1
Chain of KRAS G13D (P01116 1-169 isoform P01116-2 G13D limits assumed): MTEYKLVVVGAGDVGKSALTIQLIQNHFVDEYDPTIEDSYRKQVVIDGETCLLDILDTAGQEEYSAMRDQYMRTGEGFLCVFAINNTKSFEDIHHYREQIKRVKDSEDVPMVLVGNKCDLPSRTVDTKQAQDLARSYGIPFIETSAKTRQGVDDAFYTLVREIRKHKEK
Chain of KRAS G13D (P62937 whole entry): as the sequence (P62937 whole entry) above
Another experiment addresses NRAS G12C (Homo sapiens, UniProt P01111+P62937, G12C). The experiment is described as above. It counts as biochemical. The note with it: NRAS G12C; read-out: NRAS G12C FRET data IC50.
The target in another experiment is KRAS G12D (Homo sapiens, UniProt P01116+P62937, G12D). The experiment is described as above. It counts as biochemical. The note with it: read-out: KRAS G12D FRET data, IC50. An outline of the steps: as §1
Chain of KRAS G12D (P01116 1-169 isoform P01116-2 G12D limits assumed): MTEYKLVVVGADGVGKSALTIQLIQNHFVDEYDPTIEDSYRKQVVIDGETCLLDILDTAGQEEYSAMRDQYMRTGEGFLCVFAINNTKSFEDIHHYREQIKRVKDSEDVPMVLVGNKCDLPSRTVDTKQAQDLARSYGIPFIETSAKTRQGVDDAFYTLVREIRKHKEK
Chain of KRAS G12D (P62937 whole entry): as the sequence (P62937 whole entry) above
A further experiment addresses KRAS G12S (Homo sapiens, UniProt P01116+P62937, G12S). The experiment is described as above. It counts as biochemical. Conditions: read-out: KRAS G12S FRET data, IC50. An outline of the steps: as §1
A further experiment deals with KRAS WT (Homo sapiens, UniProt P01116+P62937). The description is as above. It counts as biochemical. The note with it: KRAS WT; read-out: KRAS WT FRET data IC50. In a few lines: as §1
Chain of KRAS WT (P01116 1-169 isoform P01116-2 limits assumed): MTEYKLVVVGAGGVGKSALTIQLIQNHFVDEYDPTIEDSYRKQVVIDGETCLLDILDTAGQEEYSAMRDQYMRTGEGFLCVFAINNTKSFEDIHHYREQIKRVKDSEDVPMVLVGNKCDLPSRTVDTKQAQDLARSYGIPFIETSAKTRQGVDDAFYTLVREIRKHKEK
Chain of KRAS WT (P62937 whole entry): as the sequence (P62937 whole entry) above
A further experiment concerns NCI-H358 (K-Ras G12C). The experiment is described as follows: CellTiter-Glo cell viability assay, 5-day treatment. It counts as cell-based. The note with it: Homo sapiens, NCI-H358, 120 h, 5-day treatment; read-out: H358 Cell Viability assay data (K-Ras G12C, IC50). An outline of the steps:
(§2)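 Seeded cells received test compound by direct dispensing. On day 5 the plates sat at room temperature approximately 30 minutes, then luminescence was measured. Data were normalized to DMSO and curve-fitted with four parameters.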

A further experiment relates to Capan-1 (K-Ras G12V). The description is as above. It counts as cell-based. Conditions: Homo sapiens, CAPAN-1, 120 h, 5-day treatment; read-out: Capan-1 Cell Viability assay data (K-Ras G12V, IC50). An outline of the steps:
as §2

In another experiment the target is NRAS WT (Homo sapiens, UniProt P01111+P62937). In words: Disruption of BRAF RBD interaction with Ras (FRET / MOA assay, with Cyclophilin A). It counts as biochemical. The note with it: NRAS WT; read-out: NRAS WT FRET data IC50. An outline of the steps:
(§3)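 IC50 reflects compound-driven Ras:Cyclophilin A ternary complex displacing BRAF RBD, read as lowered TR-FRET ratio relative to DMSO after Eu anti-His (10 nM) and APC anti-GST (50 nM) detection for 1.5 h. Prior incubation 3 h, 25° C, with 12.5 nM GMPPNP-loaded Ras, 50 nM BRAF RBD, 25 μM Cyclophilin A; top compound 30 μM.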

The target of another experiment is KRAS Q61H (Homo sapiens, UniProt P01116+P62937, Q61H). The description is as above. Conditions: KRAS Q61H; read-out: KRAS Q61H FRET data IC50. It counts as biochemical. An outline of the steps: as §3
Chain of KRAS Q61H (P01116 1-169 isoform P01116-2 Q61H limits assumed): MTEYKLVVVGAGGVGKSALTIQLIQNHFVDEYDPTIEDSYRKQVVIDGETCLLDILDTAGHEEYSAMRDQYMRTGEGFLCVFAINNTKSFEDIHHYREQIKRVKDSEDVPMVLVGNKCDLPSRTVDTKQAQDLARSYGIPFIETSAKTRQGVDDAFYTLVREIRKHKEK
Chain of KRAS Q61H (P62937 whole entry): as the sequence (P62937 whole entry) above
A further experiment deals with NRAS Q61K (Homo sapiens, UniProt P01111+P62937, Q61K). The description is as above. It counts as biochemical. The note with it: NRAS Q61K; read-out: NRAS Q61K FRET data IC50. In a few lines:
as §3

The target in the next experiment is NRAS Q61R (Homo sapiens, UniProt P01111+P62937, Q61R). Described as above. The note with it: NRAS Q61R; read-out: NRAS Q61R FRET data IC50. It counts as biochemical. An outline of the steps: as §3
Chain of NRAS Q61R (P01111 whole entry Q61R): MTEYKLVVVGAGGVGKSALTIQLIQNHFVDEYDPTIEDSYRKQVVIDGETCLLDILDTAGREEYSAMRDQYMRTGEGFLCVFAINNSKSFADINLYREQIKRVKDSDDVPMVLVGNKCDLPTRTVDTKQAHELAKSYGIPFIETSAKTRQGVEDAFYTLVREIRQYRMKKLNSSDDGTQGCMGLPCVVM
Chain of NRAS Q61R (P62937 whole entry): as the sequence (P62937 whole entry) above

Each structure is given as a SMILES string.

Chain of KRAS G12C (P01116 1-169 isoform P01116-2 G12C): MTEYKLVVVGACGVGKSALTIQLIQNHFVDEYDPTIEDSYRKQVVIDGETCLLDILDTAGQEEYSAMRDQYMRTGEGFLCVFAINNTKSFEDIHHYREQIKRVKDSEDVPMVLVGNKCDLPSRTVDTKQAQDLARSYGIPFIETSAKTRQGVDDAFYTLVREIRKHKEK
Chain of KRAS G12C (P62937 whole entry): as the sequence (P62937 whole entry) above
Chain of NRAS Q61K (P01111 whole entry Q61K): as the sequence (P01111 whole entry Q61R) above, with R61K counted along it
Chain of NRAS Q61K (P62937 whole entry): as the sequence (P62937 whole entry) above
Chain of NRAS G12C (P01111 whole entry G12C): as the sequence (P01111 whole entry Q61R) above, with G12C, R61Q counted along it
Chain of NRAS G12C (P62937 whole entry): as the sequence (P62937 whole entry) above
Chain of KRAS G12V (P01116 1-169 isoform P01116-2 G12V limits assumed): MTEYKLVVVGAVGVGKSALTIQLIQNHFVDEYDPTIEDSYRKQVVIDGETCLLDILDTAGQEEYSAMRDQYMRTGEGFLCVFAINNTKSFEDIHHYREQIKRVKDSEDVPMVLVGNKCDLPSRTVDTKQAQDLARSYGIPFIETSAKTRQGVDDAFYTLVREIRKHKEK
Chain of KRAS G12V (P62937 whole entry): as the sequence (P62937 whole entry) above
Chain of KRAS G12S (P01116 1-169 isoform P01116-2 G12S limits assumed): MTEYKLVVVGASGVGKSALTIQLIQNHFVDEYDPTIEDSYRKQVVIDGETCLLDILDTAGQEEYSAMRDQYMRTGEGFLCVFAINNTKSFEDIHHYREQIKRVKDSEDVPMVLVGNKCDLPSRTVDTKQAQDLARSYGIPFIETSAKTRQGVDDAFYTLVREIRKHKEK
Chain of KRAS G12S (P62937 whole entry): as the sequence (P62937 whole entry) above
Chain of NRAS WT (P01111 whole entry): as the sequence (P01111 whole entry Q61R) above, with R61Q counted along it
Chain of NRAS WT (P62937 whole entry): as the sequence (P62937 whole entry) above

On to `CCn1c(-c2cccnc2[C@H](C)OC)c2c3cc(ccc31)-c1csc(n1)C[C@H](NC(=O)[C@H](C(C)C)N(C)C(=O)N1CC(C(C)(C)OC)C1)C(=O)N1CCC[C@H](N1)C(=O)OCC(C)(C)C2` (atropisomer, axis not shown) [Example A614], for which the IC50 at KRAS G12V lay in the range of 100 to 1000 nM; on KRAS G13C, 100 to 1000 nM; at KRAS G12C, 10 to 100 nM; on KRAS G13D, 100 to 1000 nM; at NRAS G12C it was 10 to 100 nM; on KRAS G12D, 100 to 1000 nM. The IC50 is 100 to 1000 nM on KRAS G12S; 100 to 1000 nM on KRAS WT; 10 to 100 nM in the experiment on NCI-H358 (K-Ras G12C); 10 to 100 nM in the experiment on Capan-1 (K-Ras G12V); 100 to 1000 nM on NRAS WT; 10 to 100 nM at KRAS Q61H. In addition, the IC50 on NRAS Q61K was in the range of 10 to 100 nM; on NRAS Q61R, 100 to 1000 nM.
Take `CCn1c(-c2cccnc2[C@H](C)OC)c2c3cc(ccc31)-c1csc(n1)C[C@H](NC(=O)[C@H](C(C)C)N(C)C(=O)N(C)C)C(=O)N1CCC[C@H](N1)C(=O)OCC(C)(C)C2` (racemic) [Example A136]: the IC50 at KRAS G12V lay in the range of 100 to 1000 nM; on KRAS G13C, 100 to 1000 nM; on KRAS G12C, 10 to 100 nM; on KRAS G13D, 100 to 1000 nM; on NRAS G12C, 10 to 100 nM; at KRAS G12D, 100 to 1000 nM. The IC50 is 100 to 1000 nM on KRAS G12S; 100 to 1000 nM at KRAS WT; less than 10 nM with NCI-H358 (K-Ras G12C); 10 to 100 nM with Capan-1 (K-Ras G12V); 10 to 100 nM on NRAS WT; 10 to 100 nM on KRAS Q61H. In addition, the IC50 at NRAS Q61K and at NRAS Q61R was 10 to 100 nM each time.
Turning to `CCn1c(-c2cccnc2[C@H](C)OC)c2c3cc(ccc31)-c1cc(O)cc(c1)C[C@H](NC(=O)[C@H](C(C)C)N(C)C(=O)C1(C#N)CC1)C(=O)N1CCC[C@H](N1)C(=O)OCC(C)(C)C2` (racemic) [Example A159], the IC50 on KRAS G12V, at KRAS G13C, on KRAS G12C, at KRAS G13D, at NRAS G12C and on KRAS G12D was 10 to 100 nM in each case. The IC50 is 10 to 100 nM at KRAS G12S; 10 to 100 nM at KRAS WT; less than 10 nM with NCI-H358 (K-Ras G12C); 10 to 100 nM in the experiment with Capan-1 (K-Ras G12V); 10 to 100 nM on NRAS WT; less than 10 nM on KRAS Q61H. Also, the IC50 at NRAS Q61K and on NRAS Q61R was 10 to 100 nM throughout.
With `CCn1c(-c2cccnc2[C@H](C)OC)c2c3cc(ccc31)-c1csc(n1)C[C@H](NC(=O)[C@H](C(C)C)N(C)C(=O)N1CC(N(C)C)C1)C(=O)N1CCC[C@H](N1)C(=O)OCC(C)(C)C2` (racemic) [Example A170], the IC50 fell in the range of 100 to 1000 nM at KRAS G12V; 100 to 1000 nM at KRAS G13C; 100 to 1000 nM on KRAS G12C; 100 to 1000 nM on KRAS G13D; 100 to 1000 nM at NRAS G12C; 1000 to 10000 nM at KRAS G12D. In addition, the IC50 on KRAS G12S fell in the range of 100 to 1000 nM; on KRAS WT it was 100 to 1000 nM; in the experiment on NCI-H358 (K-Ras G12C) it was 10 to 100 nM; in the experiment with Capan-1 (K-Ras G12V), 10 to 100 nM; at NRAS WT it was 100 to 1000 nM; at KRAS Q61H it was 100 to 1000 nM. Moreover, the values for the IC50 on NRAS Q61K and at NRAS Q61R were 10 to 100 nM and 100 to 1000 nM, respectively.
On to `CCn1c(-c2cccnc2[C@H](C)OC)c2c3cc(ccc31)-c1cc(O)cc(c1)C[C@H](NC(=O)[C@H](C(C)C)N(C)C(=O)[C@H]1C[C@@H]1O)C(=O)N1CCC[C@H](N1)C(=O)OCC(C)(C)C2` (single isomer, unassigned) [Example A346], for which the IC50 on KRAS G12V lay in the range of 100 to 1000 nM; on KRAS G13C, 10 to 100 nM; at KRAS G12C, 10 to 100 nM; on KRAS G13D it was 100 to 1000 nM; on NRAS G12C it was 10 to 100 nM; on KRAS G12D it was 100 to 1000 nM. Further, the IC50 on KRAS G12S was 100 to 1000 nM; at KRAS WT, 10 to 100 nM; in the experiment on NCI-H358 (K-Ras G12C), 100 to 1000 nM; in the experiment with Capan-1 (K-Ras G12V), 100 to 1000 nM; on NRAS WT, 10 to 100 nM; on KRAS Q61H it was 10 to 100 nM. Besides, the IC50 at NRAS Q61K and on NRAS Q61R was 100 to 1000 nM throughout.

In general, IC50 refers to the concentration that inhibits the measured activity by half.

(Values after patent publication US20230233569A1 (Revolution Medicines, Inc., priority 2020, published 2023).)
